Measured values taken from article PMC3605045, “GH1-family 6-P-β-glucosidases from human microbiome lactic acid bacteria” (Acta Crystallographica Section D: Biological Crystallography, 2013).

Assays:
LpPgb1 = target: T1, LpPgb1 (Lactiplantibacillus plantarum, UniProt F9UU25); test: G6PDH-coupled NADPH absorbance assay ([…] nm); assay type: biochemical; settings: 0.1 M HEPES-NaOH pH 8.0, 2 mM NADP+, 298 K; native enzyme 0.02 µM
T1 construct: gene pbg1; full length Met1-Glu478, 478 residues, ~55 kDa, homodimer; His6 cut by TEV, SNA- left at N-terminus; E. coli BL21 (DE3) Magic, pMCSG7

SmBgl = target: T2, SmBgl (Streptococcus mutans, UniProt Q8DT00); test: X-ray crystal structure, […] Å; assay type: binding; settings: crystallised with 5 mM 6'-P-gentiobiose; product in phosphate and -1 subsites
T2 construct: gene bgl; full length, 477 residues, ~55 kDa, homodimer; His6 cut by TEV, SNA- left at N-terminus; E. coli BL21 (DE3) Magic, pMCSG7; SeMet-labelled protein in kinetic assays

Row | Compound | G6PDH-coupled NADPH absorbance assay (340 nm) (LpPgb1) | X-ray crystal structure, 1.48 Å (SmBgl)
1 | O=P(O)(O)OC[C@H]1O[C@@H](O[C@H]2[C@H](O)[C@@H](O)C(O)O[C@@H]2CO)[C@H](O)[C@@H](O)[C@@H]1O (stereo partly drawn) [6′-P-cellobiose] | Both enzymes showed hydrolytic activity towards all of these substrates | 
2 | O=P(O)(O)OC[C@H]1O[C@@H](OC[C@H]2OC(O)[C@H](O)[C@@H](O)[C@@H]2O)[C@H](O)[C@@H](O)[C@@H]1O (stereo partly drawn) [6′-P-gentiobiose] | Both enzymes showed hydrolytic activity towards all of these substrates | 
3 | O=P(O)(O)OC[C@H]1OC(O)[C@H](O)[C@@H](O)[C@@H]1O (stereo partly drawn) [BG6, 6-P-β-glucose] |  | two BG6 ligands
